We go through 29 compounds from patent US9409884B2 (Rigel Pharmaceuticals, Inc., priority 2012, dated 2016).

The target in this assay is AMPK. Nature of the assay: AMPK activation, enzyme-linked immunosorbent assay. In kind it is biochemical. The note with it: Table 14, compounds of Table 7. The procedure, abridged: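 Read-out: ELISA, used to detect compound-driven activation of AMPK.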
By EC50 is commonly meant the concentration that produces a half-maximal response. A lower EC50 goes with greater potency. For `N#Cc1ccc(CN2CCC(NC(=O)c3ccc(C(=O)N4CCC(C(=O)c5ccc(N6CCOCC6)cc5)CC4)nc3)[C@H](F)C2)cc1` (stereo partly drawn) [Compound 7-75, N-((3,4-trans)-1-(4-cyanobenzyl)-3-fluoropiperidin-4-yl)-6-(4-(4-morpholinobenzoyl)piperidine-l-carbonyl)nicotinamide], the EC50 is < 1000 nM.

Compound `CC(=O)c1ccc(Oc2ccc(NC(=O)c3ccc(C(=O)N4CCN(Cc5ccc(S(C)(=O)=O)cc5)CC4)nc3)cn2)cc1` [Compound 7-76, N-(6-(4-acetylphenoxy)pyridin-3-yl)-6-(4-(4-(methylsulfonyl)benzyl)piperazine-1-carbonyl) nicotinamide] gave an EC50 of 1000 to 10000 nM.

As to `CS(=O)(=O)c1ccc(N2CCN(c3ccc(C(=O)NC4CCN(Cc5ccc(C#N)cc5)CC4)cn3)CC2)cc1` [Compound 7-77, N-(1-(4-cyanobenzyl)piperidin-4-yl)-6-(4-(4-(methylsulfonyl)phenyl)piperazin-1-yl)nicotinamide], the EC50 was < 1000 nM.

Consider `COc1ccc(C(=O)C2CCN(C(=O)c3ccc(C(=O)NC4CCN(Cc5ccc(C#N)cc5)C[C@@H]4C)cn3)CC2)cc1` (stereo partly drawn) [Compound 7-78, N-((3,4-trans)-1-(4-cyanobenzyl)-3-methylpiperidin-4-yl)-6-(4-(4-methoxybenzoyl)piperidine-1-carbonyl)nicotinamide], for which the concentration giving a half-maximal response (EC50) was < 1000 nM. `CS(=O)(=O)c1ccc(CN2CCN(c3ccc(C(=O)NC4CCN(Cc5ccc(C#N)cc5)CC4)cn3)CC2)cc1` [Compound 7-79, N-(1-(4-cyanobenzyl)piperidin-4-yl)-6-(4-(4-(methylsulfonyl)benzyl)piperazin-1-yl)nicotinamide] came in with a concentration for a half-maximal effect (EC50) of 10000 to 20000 nM. On to `CS(=O)(=O)c1ccc(OC2CCN(c3ccc(C(=O)NC4CCN(Cc5ccc(C#N)cc5)CC4)cn3)CC2)cc1` [Compound 7-80, N-(1-(4-cyanobenzyl)piperidin-4-yl)-6-(4-(4-(methylsulfonyl)phenoxy)piperidin-1-yl)nicotinamide], for which the concentration giving a half-maximal response (EC50) is < 1000 nM.

Take `N#Cc1ccc(CN2CCC(NC(=O)c3ccc(N4CCN(c5ccc(C(=O)C6CC6)cc5)CC4)nc3)CC2)cc1` [Compound 7-81, N-(1-(4-cyanobenzyl)piperidin-4-yl)-6-(4-(4-(cyclopropanecarbonyl)phenyl)piperazin-1-yl)nicotinamide]: the 50% effective concentration (EC50) was < 1000 nM. Under `CC(=O)c1ccc(Oc2ccc(NC(=O)c3ccc(C(=O)N4CCN(Cc5ccc(S(=O)(=O)N6CCCC6)cc5)CC4)nc3)cn2)cc1` [Compound 7-83, N-(6-(4-acetylphenoxy)pyridin-3-yl)-6-(4-(4-(pyrrolidin-1-ylsulfonyl)benzyl)piperazine-1-carbonyl)nicotinamide] stands 1000 to 10000 nM; under `COc1ccc(C(=O)C2CCN(C(=O)c3ccc(C(=O)NC4CCN(Cc5ccc(C#N)cc5)CC4(C)C)cn3)CC2)cc1` (centres unmarked) [Compound 7-84, N-(1-(4-cyanobenzyl)-3,3-dimethylpiperidin-4-yl)-6-(4-(4-methoxybenzoyl)piperidine-1-carbonyl)nicotinamide], < 1000 nM. Take `COc1ccc(C(=O)C2CCN(C(=O)c3ccc(C(=O)NC4CCN(Cc5ccc(OC(F)(F)F)cc5)CC4(C)C)cn3)CC2)cc1` (centres unmarked) [Compound 7-85, N-(3,3-dimethyl-1-(4-(trifluoromethoxy)benzyl)piperidin-4-yl)-6-(4-(4-methoxybenzoyl)piperidine-1-carbonyl)nicotinamide]: the EC50 is < 1000 nM. On to `COc1ccc(C(=O)C2CCN(C(=O)c3ccc(C(=O)NC4CCN(Cc5ccc(C#N)c(F)c5)CC4(C)C)cn3)CC2)cc1` (centres unmarked) [Compound 7-86, N-(1-(4-cyano-3-fluorobenzyl)-3,3-dimethylpiperidin-4-yl)-6-(4-(4-methoxybenzoyl)piperidine-1-carbonyl)nicotinamide], for which the EC50 is < 1000 nM. On to `COc1ccc(C(=O)C2CCN(C(=O)c3ccc(C(=O)NC4CCN(Cc5ccc(F)c(OC)c5)CC4(C)C)cn3)CC2)cc1` (centres unmarked) [Compound 7-87, N-(1-(4-fluoro-3-methoxybenzyl)-3,3-dimethylpiperidin-4-yl)-6-(4-(4-methoxybenzoyl)piperidine-1-carbonyl)nicotinamide], for which the EC50 is 1000 to 10000 nM. The compound `COc1ccc(C(=O)C2CCN(C(=O)c3ccc(C(=O)NC4CCN(Cc5ccc(C#N)c(OC)c5)CC4(C)C)cn3)CC2)cc1` (centres unmarked) [Compound 7-89, N-(1-(4-cyano-3-methoxybenzyl)-3,3-dimethylpiperidin-4-yl)-6-(4-(4-methoxybenzoyl)piperidine-1-carbonyl)nicotinamide] displayed an EC50 of 1000 to 10000 nM.

As for `COc1ccc(C(=O)C2CCN(C(=O)c3ccc(C(=O)NC4CCN(Cc5ccc(OC)c(C#N)c5)CC4(C)C)cn3)CC2)cc1` (centres unmarked) [Compound 7-90, N-(1-(3-cyano-4-methoxybenzyl)-3,3-dimethylpiperidin-4-yl)-6-(4-(4-methoxybenzoyl)piperidine-1-carbonyl)nicotinamide], the 50% effective concentration (EC50) lay within 1000 to 10000 nM. As for `CCNS(=O)(=O)c1ccc(CN2CCN(C(=O)c3ccc(C(=O)N4CCC(C(=O)c5ccc(OC)cc5)CC4)nc3)CC2)cc1` [Compound 7-91, N-ethyl-4-((4-(6-(4-(4-methoxybenzoyl)piperidine-1-carbonyl)nicotinoyl)piperazin-1-yl)methyl)benzenesulfonamide], the EC50 lay within 10000 to 20000 nM. Compound `CCNS(=O)(=O)c1ccc(CN2CCN(C(=O)c3ccc(C(=O)Nc4ccc(Oc5ccc(C(C)=O)cc5)nc4)cn3)CC2)cc1` [Compound 7-92, N-(6-(4-acetylphenoxy)pyridin-3-yl)-6-(4-(4-(N-ethylsulfamoyl)benzyl)piperazine-1-carbonyl) nicotinamide] returned a half-maximal effective concentration (EC50) of 1000 to 10000 nM. As for `COc1ccc(C(=O)C2CCN(C(=O)c3ccc(C(=O)NC4CCN(Cc5ccc(C#N)cc5)C[C@@H]4C)cn3)CC2)cc1` (stereo partly drawn) [Compound 7-93, N-((3,4-cis)-1-(4-cyanobenzyl)-3-methylpiperidin-4-yl)-6-(4-(4-methoxybenzoyl)piperidine-1-carbonyl)nicotinamide], the EC50 is < 1000 nM. Regarding `COc1ccc(C(=O)C2CCN(C(=O)c3ccc(C(=O)NC4CCN(Cc5ccc(OC(F)(F)F)cc5)C[C@@H]4C)cn3)CC2)cc1` (stereo partly drawn) [Compound 7-94, 6-(4-(4-methoxybenzoyl)piperidine-1-carbonyl)-N-((3,4-cis)-3-methyl-1-(4-(trifluoromethoxy)benzyl)piperidin-4-yl)nicotinamide], the 50% effective concentration (EC50) is < 1000 nM. For `COc1ccc(C(=O)C2CCN(C(=O)c3ccc(C(=O)NC4CCN(Cc5ccc(OC)c(F)c5)CC4(C)C)cn3)CC2)cc1` (centres unmarked) [Compound 7-95, N-(1-(3-fluoro-4-methoxybenzyl)-3,3-dimethylpiperidin-4-yl)-6-(4-(4-methoxybenzoyl)piperidine-1-carbonyl)nicotinamide], the EC50 is < 1000 nM.

As to `COc1ccc(C(=O)C2CCN(C(=O)c3ccc(C(=O)NC4CCN(Cc5ccc(OC)c(F)c5)C[C@@H]4C)cn3)CC2)cc1` (stereo partly drawn) [Compound 7-96, N-((3,4-cis)-1-(3-fluoro-4-methoxybenzyl)-3-methylpiperidin-4-yl)-6-(4-(4-methoxybenzoyl)piperidine-1-carbonyl)nicotinamide], the EC50 was < 1000 nM. Regarding `COc1ccc(C(=O)C2CCN(C(=O)c3ccc(C(=O)NC4CCN(Cc5ccc(F)c(OC)c5)C[C@@H]4C)cn3)CC2)cc1` (stereo partly drawn) [Compound 7-97, N-((3,4-cis)-1-(4-fluoro-3-methoxybenzyl)-3-methylpiperidin-4-yl)-6-(4-(4-methoxybenzoyl)piperidine-1-carbonyl)nicotinamide], the EC50 is < 1000 nM. Under `COc1ccc(C(=O)C2CCN(C(=O)c3ccc(C(=O)NC4CCN(Cc5ccc(C#N)c(F)c5)C[C@@H]4C)cn3)CC2)cc1` (stereo partly drawn) [Compound 7-98, N-((3,4-cis)-1-(4-cyano-3-fluorobenzyl)-3-methylpiperidin-4-yl)-6-(4-(4-methoxybenzoyl)piperidine-1-carbonyl)nicotinamide] stands < 1000 nM. As to `COc1ccc(C(=O)C2CCN(C(=O)c3ccc(C(=O)NC4CCN(Cc5ccc(C#N)c(OC)c5)C[C@@H]4C)cn3)CC2)cc1` (stereo partly drawn) [Compound 7-99, N-((3,4-cis)-1-(4-cyano-3-methoxybenzyl)-3-methylpiperidin-4-yl)-6-(4-(4-methoxybenzoyl)piperidine-1-carbonyl)nicotinamide], the EC50 was < 1000 nM.

For the compound `COc1ccc(C(=O)C2CCN(C(=O)c3ccc(C(=O)NC4CCN(Cc5ccc(OC)c(C#N)c5)C[C@@H]4C)cn3)CC2)cc1` (stereo partly drawn) [Compound 7-100, N-((3,4-cis)-1-(3-cyano-4-methoxybenzyl)-3-methylpiperidin-4-yl)-6-(4-(4-methoxybenzoyl)piperidine-1-carbonyl)nicotinamide], the EC50 was < 1000 nM. Take `COc1ccc(C(=O)C2CCN(C(=O)c3ccc(C(=O)NC4CCN(Cc5ccc(C#N)cc5)C[C@@H]4C(F)(F)F)cn3)CC2)cc1` (stereo partly drawn) [Compound 7-101, N-((3,4-cis)-1-(4-cyanobenzyl)-3-(trifluoromethyl)piperidin-4-yl)-6-(4-(4-methoxybenzoyl)piperidine-1-carbonyl)nicotinamide]: the concentration for a half-maximal effect (EC50) was < 1000 nM. Under `COc1ccc(CN2CCC(NC(=O)c3ccc(C(=O)N4CCC(C(=O)c5ccc(OC)cc5)CC4)nc3)[C@@H](C(F)(F)F)C2)cc1` (stereo partly drawn) [Compound 7-102, 6-(4-(4-methoxybenzoyl)piperidine-1-carbonyl)-N-((3,4-cis)-1-(4-methoxybenzyl)-3 - (trifluoromethyl)piperidin-4-yl)nicotinamide] stands < 1000 nM; under `COc1ccc(C(=O)C2CCN(C(=O)c3cc(C)c(C(=O)NC4CCN(Cc5ccc(C#N)cc5)CC4)cn3)CC2)cc1` [Compound 7-105, N-(1-(4-cyanobenzyl)piperidin-4-yl)-6-(4-(4-methoxybenzoyl)piperidine-1-carbonyl)-4-methylnicotinamide], < 1000 nM; under `O=C(NC1CCN(Cc2ccc(OC(F)(F)F)cc2)CC1)c1ccc(C(=O)N2CCC(Oc3cccc(NC(=O)C4CC4)c3)CC2)nc1` [Compound 7-108, 6-(4-(3-(cyclopropanecarboxamido)phenoxy)piperidine-1-carbonyl)-N-(1-(4-(trifluoromethoxy)benzyl)piperidin-4-yl)nicotinamide], < 1000 nM. Consider `COc1ccc(CN2CCC(NC(=O)c3ccc(C(=O)N4CCC(C(=O)c5ccc(N6CCCC6)cc5)CC4)nc3)CC2)cc1` [Compound 7-109, N-(1-(4-methoxybenzyl)piperidin-4-yl)-6-(4-(4-(pyrrolidin-1-yl)benzoyl)piperidine-1-carbonyl)nicotinamide], for which the EC50 is < 1000 nM.
